Assay [1] can be described thus: estrogenic effectiveness in vivo. As to conditions: applied orally in vivo.
A further assay has as its target T1, steroid sulfatase (Homo sapiens, UniProt P08842).
T1 sequence (P08842 22-583): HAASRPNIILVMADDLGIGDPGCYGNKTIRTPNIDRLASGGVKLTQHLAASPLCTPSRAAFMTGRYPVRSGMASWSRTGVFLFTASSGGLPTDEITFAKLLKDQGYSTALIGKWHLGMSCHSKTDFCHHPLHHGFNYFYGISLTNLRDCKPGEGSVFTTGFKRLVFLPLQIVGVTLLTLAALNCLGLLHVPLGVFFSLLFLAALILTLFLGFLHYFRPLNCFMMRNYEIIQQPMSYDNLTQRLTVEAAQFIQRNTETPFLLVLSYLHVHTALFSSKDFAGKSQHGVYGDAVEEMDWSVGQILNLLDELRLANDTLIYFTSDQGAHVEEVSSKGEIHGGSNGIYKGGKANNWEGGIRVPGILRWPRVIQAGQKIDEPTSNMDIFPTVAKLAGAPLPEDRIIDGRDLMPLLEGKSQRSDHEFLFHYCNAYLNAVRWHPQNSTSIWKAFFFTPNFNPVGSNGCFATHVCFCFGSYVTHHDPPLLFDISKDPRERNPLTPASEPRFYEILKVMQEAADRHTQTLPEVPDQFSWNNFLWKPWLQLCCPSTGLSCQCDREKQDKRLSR
The settings on record: found by M. J. Reed et al.; cited from earlier work.

In the case of `C[C@]12CC[C@@H]3c4ccc(OS(N)(=O)=O)cc4CC[C@H]3[C@@H]1C[C@@H](Br)[C@@H]2O` [16α-bromoestradiol-3-sulfamate, 16α-Bromo-3-sulfamoyloxy-13β-methyl-1,3,5(10)-gonatrien-17β-ol], the “estrogenic effectiveness compared with estradiol-3-sulfamate” value in assay [1] (relative to estradiol-3-sulfamate) is on record as “three times more effective”. For the same compound, in assay [1] (relative to estriol), the “estrogenic effectiveness compared with estriol” value is on record as “five times more effective”.

Regarding `C[C@]12CC[C@@H]3c4ccc(OS(N)(=O)=O)cc4CC[C@H]3[C@@H]1CC[C@@H]2O` [estradiol-3-sulfamate], the sulfatase-inhibiting activity entry on steroid sulfatase was “strong sulfatase-inhibiting activity”.

In the case of `C[C@]12CC[C@@H]3c4ccc(OS(N)(=O)=O)cc4CC[C@H]3[C@@H]1CCC2=O` [estrone-3-sulfamate], at steroid sulfatase, the sulfatase-inhibiting activity entry is “strong sulfatase-inhibiting activity”.

The values above are taken from patent US6339079B1, “Steroid sulfamates, method for the production and use thereof” (id pharma GmbH, priority 1997, dated 2002).
